Laboratory results taken from patent US20240408222A1, “COMPOUNDS, PHARMACEUTICAL COMPOSITIONS, AND METHODS FOR THE TREATMENT, PREVENTION, OR MANAGEMENT OF HYPERPRO[…]” (VINCERX PHARMA GMBH, priority 2021, published 2024).
Where a name gives a salt, the structure may show the parent alone.

What was measured:
Experiment in all cases: Cytotoxicity assay (Version 2, automated, AC50) with/without neutrophil elastase
Conditions in all cases: Version 2, activity concentration at −50%
[1] = system: 786-O; type: cell-based, human
Procedure: (§1) Cultivation of cells was performed according to standard procedures with the media recommended by the provider. The cells, in a total volume of 100 μL, were seeded in a 96-well plate with a white bottom (#3610). After a 24 h incubation period at 37° C. and […], the medium was exchanged by adding 90 μL fresh medium. The treatment started by adding the test compound in 10 μL of culture medium to the cells in triplicates. Concentrations ranging from 10^−5 M to 10^−13 M were chosen. Two identically treated sets of samples were prepared. One set was treated with the test compound alone, whereas to the second set the compound and 10 nM elastase was added followed by a 72 h incubation period at 37° C. and […]. The proliferation was detected using the MTT assay (ATCC). At the end of the incubation period the MTT reagent was added to all samples for 4 h. Lysis of the cells followed by addition of the detergent was done overnight. The formed dye was detected at 570 nm. The proliferation of untreated but otherwise identically handled cells was define as the 100% value.
(§2) The cytotoxicity assay (Version 2) was performed as described above. Some changes were applied as the assays were performed in an automated fashion and the IC50 values determination was changed. Here the change in metabolic activity of the cells, in percent, was calculated by normalization of the measured values to the absorbance values of medium containing wells without cells (═−100%) and the absorbance of the DMSO-treated cells (═0%). AC50 values (activity concentration at −50%) were determined by means of a 4 parameter Hill-fit using GeneData Screener software.

[2] = system: HT29; type: cell-based, human
Procedure: as §1, §2

[3] = system: NCI H292; type: cell-based, human
Procedure: as §1, §2

[4] = system: SUM149; type: cell-based
Procedure: as §1, §2

[5] = without (−) neutrophil elastase
[6] = HT29, with (+) neutrophil elastase
[7] = HT29, without (−) neutrophil elastase
[8] = NCI H292, with (+) neutrophil elastase
[9] = NCI H292, without (−) neutrophil elastase
[10] = SUM149, with (+) neutrophil elastase
[11] = SUM149, without (−) neutrophil elastase

| SMILES | AC50 ([1]; with (+) neutrophil elastase) [µM] | AC50 [1, 5] [µM] | AC50 [2, 6] [µM] | AC50 [2, 7] [µM] | AC50 [3, 8] [µM] | AC50 [3, 9] [µM] | AC50 [4, 10] [µM] | AC50 [4, 11] [µM] |
| --- | --- | --- | --- | --- | --- | --- | --- | --- |
| CCCNC(=O)Nc1cccc(S(=O)(=O)Nc2cccc([C@@H](CC(=O)O)NC(=O)Nc3ccc(NC(=O)NCCOCCOCCOCCC(=O)NCCCC[C@H](NC(=O)CCOCCOCCOCCNC(=O)Nc4ccc(NC(=O)N[C@H](CC(=O)O)c5cccc(NS(=O)(=O)c6cccc(NC(=O)NCCC)c6)c5)cc4)C(=O)NCCN(C)CCN(C)CCN(C)CC(=O)N[C@@H](CC(N)=O)C(=O)N4CCC[C@H]4C(=O)N[C@H](C(=O)N=[S@@](C)(=O)Cc4cc5cc(c4)O[C@@H](C)CCOc4cc(F)ccc4-c4nc(ncc4F)N5)C(C)C)cc3)c2)c1 (relative stereo) [Compound 28] | ≤ 0.01 | > 1 | ≤ 0.01 | 0.1 to 1 | ≤ 0.01 | 0.1 to 1 | ≤ 0.01 | 0.1 to 1 |
| CCCNC(=O)Nc1cccc(S(=O)(=O)Nc2cccc([C@H](CC(=O)O)NC(=O)Nc3ccc(NC(=O)NCCOCCOCCOCCC(=O)N[C@@H](CCCCNC(=O)CCOCCOCCOCCNC(=O)Nc4ccc(NC(=O)N[C@H](CC(=O)O)c5cccc(NS(=O)(=O)c6cccc(NC(=O)NCCC)c6)c5)cc4)C(=O)NCCOCCOCCOCCC(=O)N[C@@H](CC(=O)O)C(=O)N4CCC[C@H]4C(=O)N[C@H](C(=O)N=S(C)(=O)Cc4cc5nc(c4)OCCCOc4cc(F)ccc4-c4cc(ncc4F)N5)C(C)C)cc3)c2)c1 (relative stereo) [Compound 32] | ≤ 0.01 | 0.1 to 1 | ≤ 0.01 | > 1 | ≤ 0.01 | 0.1 to 1 | ≤ 0.01 | 0.1 to 1 |
| CCCNC(=O)Nc1cccc(S(=O)(=O)Nc2cccc([C@H](CC(=O)O)NC(=O)Nc3ccc(NC(=O)NCCOCCOCCOCCC(=O)NCCCC[C@H](NC(=O)CCOCCOCCOCCNC(=O)Nc4ccc(NC(=O)N[C@@H](CC(=O)O)c5cccc(NS(=O)(=O)c6cccc(NC(=O)NCCC)c6)c5)cc4)C(=O)NCCN(C)CCN(C)CCN(C)CC(=O)N[C@@H](CC(N)=O)C(=O)N4CCC[C@H]4C(=O)N[C@H](C(=O)N=[S@@](C)(=O)Cc4cc5cc(c4)O[C@@H](C)CCOc4cc(F)ccc4-c4nc(ncc4F)N5)C(C)C)cc3)c2)c1 (relative stereo) [Compound 29] | ≤ 0.01 | > 1 | ≤ 0.01 | 0.1 to 1 | ≤ 0.01 | 0.1 to 1 | ≤ 0.01 | 0.1 to 1 |
| CCCNC(=O)Nc1cccc(S(=O)(=O)Nc2cccc([C@@H](CC(=O)O)NC(=O)Nc3ccc(NC(=O)NCCOCCOCCOCCC(=O)N[C@@H](CC(=O)O)C(=O)N4CCC[C@H]4C(=O)N[C@H](C(=O)N=[S@](C)(=O)Cc4cc5nc(c4)O[C@@H](C)CCCCOc4cc(F)ccc4-c4cc(ncc4F)N5)C(C)C)cc3)c2)c1 (relative stereo) [Compound 55] | 0.011 to 0.1 | > 1 | 0.011 to 0.1 | > 1 | 0.011 to 0.1 | > 1 | ≤ 0.01 | > 1 |
| CCCNC(=O)Nc1cccc(S(=O)(=O)Nc2cccc([C@@H](CC(=O)O)NC(=O)Nc3ccc(NC(=O)NCCOCCOCCOCCC(=O)N[C@@H](CC(=O)O)C(=O)N4CCC[C@H]4C(=O)N[C@H](C(=O)N=[S@@](C)(=O)Cc4cc5nc(c4)OCCCOc4cc(F)ccc4-c4cc(ncc4F)N5)C(C)C)cc3)c2)c1 (racemic) [Compound 37, N-(14-{4-[({(1R)-2-carboxy-1-[3-({3-[(propylcarbamoyl)amino]benzene-1-sulfonyl}amino)phenyl]ethyl}carbamoyl)amino]anilino}-14-oxo-4,7,10-trioxa-13-azatetradecanan-1-oyl)-L-alpha-aspartyl-L-prolyl-N—[(RS)—{[15,19-difluoro-3,4-dihydro-2H,11H-10,6-(azeno)-12,16-(metheno)-1,5,11,13-benzodioxadiazacyclooctadecin-8-yl]methyl}(methyl)oxo-lambda^6-sulfanylidene]-L-valinamide] | ≤ 0.01 | 0.1 to 1 | ≤ 0.01 | 0.1 to 1 | ≤ 0.01 | 0.1 to 1 | ≤ 0.01 | 0.1 to 1 |
| CCCNC(=O)Nc1cccc(S(=O)(=O)Nc2cccc([C@@H](CC(=O)O)NC(=O)Nc3ccc(NC(=O)NCCOCCOCCOCCC(=O)N[C@@H](CC(=O)OCCC[N+](C)(C)C)C(=O)N4CCC[C@H]4C(=O)N[C@H](C(=O)N=S(C)(=O)Cc4cc5cc(c4)OCCCCOc4cc(F)ccc4-c4nc(ncc4F)N5)C(C)C)cc3)c2)c1 (single isomer, unassigned) [Compound 20, trifluoroacetate] | 0.011 to 0.1 | > 1 | 0.011 to 0.1 | > 1 | 0.011 to 0.1 | > 1 | 0.011 to 0.1 | 0.1 to 1 |
| CCCNC(=O)Nc1cccc(S(=O)(=O)Nc2cccc([C@@H](CC(=O)O)NC(=O)Nc3ccc(NC(=O)NCCOCCOCCOCCC(=O)N[C@@H](CC(=O)OCCCCN(C)C)C(=O)N4CCC[C@H]4C(=O)N[C@H](C(=O)N=S(C)(=O)Cc4cc5cc(c4)OCCCCOc4cc(F)ccc4-c4nc(ncc4F)N5)C(C)C)cc3)c2)c1 (single isomer, unassigned) [Compound 21] | 0.011 to 0.1 | > 1 | 0.011 to 0.1 | > 1 | 0.011 to 0.1 | 0.1 to 1 | 0.011 to 0.1 | 0.1 to 1 |
| CCCNC(=O)Nc1cccc(S(=O)(=O)Nc2cccc([C@@H](CC(=O)O)NC(=O)Nc3ccc(NC(=O)NCCN(C)CCN(C)CCN(C)CC(=O)N[C@@H](CC(N)=O)C(=O)N4CCC[C@H]4C(=O)N[C@H](C(=O)N=S(C)(=O)Cc4cc5nc(c4)OCCCOc4cc(F)ccc4-c4cc(ncc4F)N5)C(C)C)cc3)c2)c1 (mixture of isomers) [Compound 22] | ≤ 0.01 | 0.1 to 1 | ≤ 0.01 | 0.1 to 1 | ≤ 0.01 | 0.1 to 1 | ≤ 0.01 | 0.1 to 1 |
| CCCNC(=O)Nc1cccc(S(=O)(=O)Nc2cccc([C@@H](CC(=O)O)NC(=O)Nc3ccc(NC(=O)NCCOCCOCCOCCC(=O)NCCNC(=O)CC[C@H](NC(=O)CCCC(=O)NCCN(C)CCN(C)CCN(C)CC(=O)N[C@@H](CC(N)=O)C(=O)N4CCC[C@H]4C(=O)N[C@H](C(=O)N=[S@@](C)(=O)Cc4cc5cc(c4)OCCCCOc4cc(F)ccc4-c4nc(ncc4F)N5)C(C)C)C(=O)NCCNC(=O)CCOCCOCCOCCNC(=O)Nc4ccc(NC(=O)N[C@H](CC(=O)O)c5cccc(NS(=O)(=O)c6cccc(NC(=O)NCCC)c6)c5)cc4)cc3)c2)c1 [Compound 25] | 0.011 to 0.1 | > 1 | 0.011 to 0.1 | > 1 | 0.011 to 0.1 |  | 0.011 to 0.1 | 0.1 to 1 |
| CCCNC(=O)Nc1cccc(S(=O)(=O)Nc2cccc([C@@H](CC(=O)O)NC(=O)Nc3ccc(NC(=O)NCCOCCOCCOCCC(=O)NCCCC[C@H](NC(=O)CCOCCOCCOCCNC(=O)Nc4ccc(NC(=O)N[C@H](CC(=O)O)c5cccc(NS(=O)(=O)c6cccc(NC(=O)NCCC)c6)c5)cc4)C(=O)NCCOCCOCCOCCC(=O)N[C@@H](CC(=O)O)C(=O)N4CCC[C@H]4C(=O)N[C@H](C(=O)N=[S@](C)(=O)Cc4cc5cc(c4)O[C@H](C)CCOc4cc(F)ccc4-c4nc(ncc4F)N5)C(C)C)cc3)c2)c1 (relative stereo) [Compound 31] | ≤ 0.01 | > 1 | ≤ 0.01 | > 1 | ≤ 0.01 | 0.1 to 1 | ≤ 0.01 | 0.1 to 1 |
| CCCNC(=O)Nc1cccc(S(=O)(=O)Nc2cccc([C@H](CC(=O)O)NC(=O)Nc3ccc(NC(=O)NCCN(C)CCN(C)CCN(C)CC(=O)N[C@@H](CC(N)=O)C(=O)N4CCC[C@H]4C(=O)N[C@H](C(=O)N=S(C)(=O)Cc4cc5nc(c4)OCCCOc4cc(F)ccc4-c4cc(ncc4F)N5)C(C)C)cc3)c2)c1 (mixture of isomers) [Compound 23] | ≤ 0.01 | 0.1 to 1 | ≤ 0.01 | 0.1 to 1 | ≤ 0.01 | 0.1 to 1 | ≤ 0.01 | 0.1 to 1 |
| CCCNC(=O)Nc1cccc(S(=O)(=O)Nc2cccc([C@@H](CC(=O)O)NC(=O)Nc3ccc(NC(=O)NCCOCCOCCOCCC(=O)N[C@@H](CC(=O)O)C(=O)N4CCC[C@H]4C(=O)N[C@H](C(=O)N=[S@](C)(=O)Cc4cc5nc(c4)O[C@H](C)CCCCOc4cc(F)ccc4-c4cc(ncc4F)N5)C(C)C)cc3)c2)c1 (relative stereo) [Compound 56] | 0.011 to 0.1 | > 1 | 0.011 to 0.1 | > 1 | 0.011 to 0.1 | > 1 | 0.011 to 0.1 | 0.1 to 1 |
